{"source": "paper PMC7876048", "about": "“Mutant-selective degradation by BRAF-targeting PROTACs” (Nature Communications, 2021)", "key": {"BRAF^WT (OVCAR-8 cells)": {"biological_target": "T1, BRAF^WT (OVCAR-8 cells) (Homo sapiens, UniProt P15056)", "T1 construct": "endogenous in cells; host or cells: OVCAR-8", "test": "BRAF^WT degradation by immunoblot in OVCAR-8 cells", "assay_type": "cell-based", "procedure": "(§1) Cells were plated in 6 well dishes (5 × 10^5–8 × 10^5 cells) and allowed to attach overnight. […] The plates were then placed on ice and washed 1x with chilled PBS and lysed in buffer containing 25 mM Tris-HCl [pH 7.4], 0.25% sodium deoxycholate, 150 mM NaCl, 1% Triton X-100, supplemented with protease inhibitors (1x Roche protease inhibitor cocktail) and phosphatase inhibitors (10 mM NaF, 1 mM Na3OV4, and 20 mM β-glycerophosphate). Lysates were then cleared at 21,000 g for 10 min at 4 °C. Protein concentrations of the supernatants were then quantified using a Pierce BCA Protein Assay. 12–40 µg of protein were separated using a gradient (4–20%) Criterion TGX precast gel and transferred unto a nitrocellulose membrane. The membranes were then blocked in 5% non-fat milk in TBST (Tris-buffered Saline with Tween 20) for 1 h before probing with the indicated primary antibody overnight. Membranes were imaged using Bio-Rad Image Lab software using ECL prime detection reagent (GE Healthcare, RPN2232 or ThermoScientific, 34095).\n(§2) Western blot data was quantified by using the band feature in Image Lab, and values were averaged and analyzed in GraphPad Prism. DC50 and DMAX values were fitted using a three parameter [inhibitor] versus response and reported directly from the Prism output. Mean ± SD and unpaired t-tests were performed in GraphPad Prism."}, "[1]": {"biological_target": "T2, BRAF^WT (SK-BR-3 cells, HER2 amplification) (Homo sapiens, UniProt P15056)", "T2 construct": "endogenous in cells; host or cells: SK-BR-3", "test": "BRAF^WT degradation by immunoblot in SK-BR-3 cells", "assay_type": "cell-based", "procedure": "as §1, §2"}, "[2]": {"test_system": "SK-MEL-246 cells (Class 2, BRAF^G469A)", "test": "Cell proliferation (MTS) assay", "assay_type": "cell-based", "details": "120 h, 5-day treatment, read-out: EC50, cell growth"}, "[3]": {"biological_target": "T3, BRAF-p61^V600E (HCC-364 vr1 cells) (Homo sapiens, UniProt P15056+P40337, DEL169-380/V600E)", "T3 construct": "endogenous in cells; host or cells: SK-MEL-239 C4; HCC-364 vr1", "T3 sequence (P15056 with tags, fused parts or gaps DEL169-380/V600E)": "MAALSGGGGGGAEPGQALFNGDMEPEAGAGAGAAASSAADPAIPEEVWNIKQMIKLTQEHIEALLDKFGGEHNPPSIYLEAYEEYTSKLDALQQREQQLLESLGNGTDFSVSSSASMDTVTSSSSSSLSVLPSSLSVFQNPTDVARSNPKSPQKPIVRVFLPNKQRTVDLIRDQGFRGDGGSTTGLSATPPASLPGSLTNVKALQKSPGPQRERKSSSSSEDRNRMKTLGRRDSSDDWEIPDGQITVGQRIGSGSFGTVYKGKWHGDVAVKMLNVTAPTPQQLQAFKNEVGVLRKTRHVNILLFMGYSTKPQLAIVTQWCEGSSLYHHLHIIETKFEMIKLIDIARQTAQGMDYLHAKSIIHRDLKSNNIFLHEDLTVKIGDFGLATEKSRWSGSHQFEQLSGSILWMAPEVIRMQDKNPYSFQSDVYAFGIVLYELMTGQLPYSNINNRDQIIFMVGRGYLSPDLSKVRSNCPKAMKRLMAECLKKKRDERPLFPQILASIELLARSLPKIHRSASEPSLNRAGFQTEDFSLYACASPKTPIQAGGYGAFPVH", "T3 sequence (P40337 whole entry, stated change not applied)": "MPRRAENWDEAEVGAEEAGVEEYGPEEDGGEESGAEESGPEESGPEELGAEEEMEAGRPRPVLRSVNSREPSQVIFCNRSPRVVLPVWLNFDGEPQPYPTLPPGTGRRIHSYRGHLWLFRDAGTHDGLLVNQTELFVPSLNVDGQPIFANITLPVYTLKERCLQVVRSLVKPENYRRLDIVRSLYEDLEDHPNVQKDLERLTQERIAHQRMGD", "T3 sequence (Q15370 whole entry partner)": "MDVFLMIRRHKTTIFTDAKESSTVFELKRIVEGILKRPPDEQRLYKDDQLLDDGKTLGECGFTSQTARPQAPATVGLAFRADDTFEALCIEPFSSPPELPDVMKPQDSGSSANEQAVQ", "T3 sequence (Q15369 whole entry partner)": "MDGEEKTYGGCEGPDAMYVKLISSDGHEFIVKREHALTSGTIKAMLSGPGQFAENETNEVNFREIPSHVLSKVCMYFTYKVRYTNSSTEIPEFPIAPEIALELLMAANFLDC", "test": "BRAF degradation by immunoblot in HCC-364 vr1 cells", "assay_type": "cell-based", "procedure": "as §1, §2"}, "BRAF (G464V)": {"biological_target": "T4, BRAF (G464V) (Homo sapiens, UniProt P15056, G464V)", "T4 construct": "purchased Reaction Biology Corps", "T4 sequence (P15056 whole entry G464V)": "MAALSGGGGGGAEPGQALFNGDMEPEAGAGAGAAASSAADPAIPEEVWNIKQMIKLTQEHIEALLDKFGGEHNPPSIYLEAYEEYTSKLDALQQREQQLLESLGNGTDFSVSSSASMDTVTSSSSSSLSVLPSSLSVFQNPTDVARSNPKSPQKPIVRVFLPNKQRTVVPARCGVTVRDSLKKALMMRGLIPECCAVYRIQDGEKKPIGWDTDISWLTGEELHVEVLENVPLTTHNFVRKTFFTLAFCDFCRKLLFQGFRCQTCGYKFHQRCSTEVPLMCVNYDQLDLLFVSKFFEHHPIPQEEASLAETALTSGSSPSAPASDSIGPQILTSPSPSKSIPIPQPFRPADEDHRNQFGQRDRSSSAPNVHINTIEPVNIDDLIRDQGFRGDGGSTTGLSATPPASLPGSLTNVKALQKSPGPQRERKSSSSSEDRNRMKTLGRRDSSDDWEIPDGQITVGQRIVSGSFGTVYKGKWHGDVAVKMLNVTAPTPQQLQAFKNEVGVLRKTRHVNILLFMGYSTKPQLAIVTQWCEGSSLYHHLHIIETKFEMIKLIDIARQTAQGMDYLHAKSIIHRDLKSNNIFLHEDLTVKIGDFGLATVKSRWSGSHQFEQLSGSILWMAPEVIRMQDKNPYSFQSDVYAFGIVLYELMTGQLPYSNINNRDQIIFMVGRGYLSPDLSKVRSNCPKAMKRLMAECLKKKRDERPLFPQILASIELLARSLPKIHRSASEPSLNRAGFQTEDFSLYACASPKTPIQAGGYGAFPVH", "test": "Radiolabeled kinase assay (Reaction Biology)", "assay_type": "biochemical", "procedure": "(§3) Kinase assays were performed by Reaction Biology Corps by their protocol in duplicate using Km amounts of ATP calculated for each kinase."}, "BRAF (L597V)": {"biological_target": "T5, BRAF (L597V) (Homo sapiens, UniProt P15056, L597V)", "T5 construct": "purchased Reaction Biology Corps", "T5 sequence (P15056 whole entry L597V)": "as the sequence (P15056 whole entry G464V) above, with V464G, L597V counted along it", "test": "Radiolabeled kinase assay (Reaction Biology)", "assay_type": "biochemical", "procedure": "as §3"}, "CRAF": {"biological_target": "CRAF (Homo sapiens, UniProt P04049)", "sequence (P04049 whole entry)": "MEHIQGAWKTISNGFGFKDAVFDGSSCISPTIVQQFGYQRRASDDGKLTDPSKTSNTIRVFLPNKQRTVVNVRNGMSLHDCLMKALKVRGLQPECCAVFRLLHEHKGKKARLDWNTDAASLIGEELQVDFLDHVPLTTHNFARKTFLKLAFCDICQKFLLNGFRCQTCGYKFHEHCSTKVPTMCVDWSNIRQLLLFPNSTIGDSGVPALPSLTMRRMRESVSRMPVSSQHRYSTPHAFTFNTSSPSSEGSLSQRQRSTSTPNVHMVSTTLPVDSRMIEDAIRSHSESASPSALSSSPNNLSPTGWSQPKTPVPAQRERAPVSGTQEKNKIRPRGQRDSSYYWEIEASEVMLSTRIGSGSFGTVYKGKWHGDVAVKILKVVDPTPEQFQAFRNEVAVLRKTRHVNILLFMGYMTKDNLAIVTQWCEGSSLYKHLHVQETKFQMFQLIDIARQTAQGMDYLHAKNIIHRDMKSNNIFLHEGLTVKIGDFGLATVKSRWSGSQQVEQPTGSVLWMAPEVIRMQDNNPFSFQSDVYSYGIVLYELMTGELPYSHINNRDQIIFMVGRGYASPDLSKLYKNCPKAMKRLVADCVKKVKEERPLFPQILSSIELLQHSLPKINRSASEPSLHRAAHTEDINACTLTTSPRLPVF", "test": "Radiolabeled kinase assay (Reaction Biology)", "assay_type": "biochemical", "procedure": "as §3"}, "BRAF (V600D)": {"biological_target": "T6, BRAF (V600D) (Homo sapiens, UniProt P15056, V600D)", "T6 construct": "purchased Reaction Biology Corps", "T6 sequence (P15056 whole entry V600D)": "as the sequence (P15056 whole entry G464V) above, with V464G, V600D counted along it", "test": "Radiolabeled kinase assay (Reaction Biology)", "assay_type": "biochemical", "procedure": "as §3"}, "BRAF (V600K)": {"biological_target": "T7, BRAF (V600K) (Homo sapiens, UniProt P15056, V600K)", "T7 construct": "purchased Reaction Biology Corps", "T7 sequence (P15056 whole entry V600K)": "as the sequence (P15056 whole entry G464V) above, with V464G, V600K counted along it", "test": "Radiolabeled kinase assay (Reaction Biology)", "assay_type": "biochemical", "procedure": "as §3"}, "BRAF (G469A)": {"biological_target": "T8, BRAF (G469A) (Homo sapiens, UniProt P15056, G469A)", "T8 construct": "purchased Reaction Biology Corps", "T8 sequence (P15056 whole entry G469A)": "as the sequence (P15056 whole entry G464V) above, with V464G, G469A counted along it", "test": "Radiolabeled kinase assay (Reaction Biology)", "assay_type": "biochemical", "procedure": "as §3"}, "BRAF (BRAF^WT)": {"biological_target": "T9, BRAF (BRAF^WT) (Homo sapiens, UniProt P15056)", "T9 construct": "purchased Reaction Biology Corps", "test": "Radiolabeled kinase assay (Reaction Biology)", "assay_type": "biochemical", "procedure": "as §3"}, "BRAF (V600A)": {"biological_target": "T10, BRAF (V600A) (Homo sapiens, UniProt P15056, V600A)", "T10 construct": "purchased Reaction Biology Corps", "T10 sequence (P15056 whole entry V600A)": "as the sequence (P15056 whole entry G464V) above, with V464G, V600A counted along it", "test": "Radiolabeled kinase assay (Reaction Biology)", "assay_type": "biochemical", "procedure": "as §3"}, "BRAF (K601E)": {"biological_target": "T11, BRAF (K601E) (Homo sapiens, UniProt P15056, K601E)", "T11 construct": "purchased Reaction Biology Corps", "T11 sequence (P15056 whole entry K601E)": "as the sequence (P15056 whole entry G464V) above, with V464G, K601E counted along it", "test": "Radiolabeled kinase assay (Reaction Biology)", "assay_type": "biochemical", "procedure": "as §3"}, "ARAF": {"biological_target": "T12, ARAF (Homo sapiens, UniProt P10398)", "T12 construct": "purchased Reaction Biology Corps", "test": "Radiolabeled kinase assay (Reaction Biology)", "assay_type": "biochemical", "procedure": "as §3"}, "[4]": {"biological_target": "T13, BRAF^V600E (SK-MEL-28 cells, homozygous) (Homo sapiens, UniProt P15056, V600E)", "T13 construct": "endogenous in cells; host or cells: SK-MEL-28", "T13 sequence (P15056 whole entry V600E)": "as the sequence (P15056 whole entry G464V) above, with V464G, V600E counted along it", "test": "BRAF degradation by immunoblot in SK-MEL-28 cells", "assay_type": "cell-based", "procedure": "as §1, §2"}, "[5]": {"biological_target": "T14, BRAF^G466V (CAL-12-T cells, homozygous, Class 3) (Homo sapiens, UniProt P15056, G466V)", "T14 construct": "endogenous in cells; host or cells: CAL-12-T", "T14 sequence (P15056 whole entry G466V)": "as the sequence (P15056 whole entry G464V) above, with V464G, G466V counted along it", "test": "BRAF degradation by immunoblot in CAL-12-T cells", "assay_type": "cell-based", "procedure": "as §1, §2"}, "[6]": {"test_system": "CAL-12-T cells (Class 3, BRAF^G466V)", "test": "Cell proliferation (MTS) assay", "assay_type": "cell-based", "details": "5 days", "procedure": "[…] 2 mg/ml MTS (Promega Corp., Madison, WI: G5421) and 25 μM phenazine methosulfate (Sigma, St. Louis, MO) were combined 19:1 and then added to cells (1 volume combined reagent: 5 volumes medium) and incubated for 1–3 h. Mitochondrial reduction of MTS to the formazan derivative was monitored by measuring the medium’s absorbance at 480 nm using a Perkin Elmer Envision Plate reader."}, "[7]": {"biological_target": "T15, BRAF^WT (NCI-H23 cells, K-RAS^G12C) (Homo sapiens, UniProt P15056)", "T15 construct": "endogenous in cells; host or cells: NCI-H23", "T15 sequence (P15056 2-766, stated change not applied)": "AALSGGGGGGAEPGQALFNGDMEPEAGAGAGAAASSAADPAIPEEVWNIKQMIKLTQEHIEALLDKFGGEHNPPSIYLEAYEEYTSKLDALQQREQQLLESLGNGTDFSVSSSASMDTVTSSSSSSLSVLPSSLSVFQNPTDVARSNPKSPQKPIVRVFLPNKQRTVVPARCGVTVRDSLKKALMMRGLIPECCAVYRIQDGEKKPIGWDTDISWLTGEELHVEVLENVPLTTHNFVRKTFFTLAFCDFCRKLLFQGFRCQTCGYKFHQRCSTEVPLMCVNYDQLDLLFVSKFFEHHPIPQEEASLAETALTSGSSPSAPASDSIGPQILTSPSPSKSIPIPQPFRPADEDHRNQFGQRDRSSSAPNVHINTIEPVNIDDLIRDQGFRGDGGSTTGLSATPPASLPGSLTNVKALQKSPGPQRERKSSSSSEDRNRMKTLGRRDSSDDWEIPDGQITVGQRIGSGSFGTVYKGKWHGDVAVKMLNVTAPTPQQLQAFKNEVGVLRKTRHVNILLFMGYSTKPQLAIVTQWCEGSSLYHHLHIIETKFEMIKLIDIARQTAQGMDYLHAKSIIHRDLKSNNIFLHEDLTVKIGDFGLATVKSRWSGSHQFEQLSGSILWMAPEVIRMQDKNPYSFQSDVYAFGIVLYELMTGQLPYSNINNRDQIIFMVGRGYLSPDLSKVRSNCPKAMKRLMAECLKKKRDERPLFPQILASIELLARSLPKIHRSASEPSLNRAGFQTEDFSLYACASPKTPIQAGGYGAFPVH", "test": "BRAF^WT degradation by immunoblot in NCI-H23 cells", "assay_type": "cell-based", "procedure": "as §1, §2"}, "[8]": {"test_system": "MEK and ERK phosphorylation (SK-MEL-28 cells)", "test": "MEK and ERK phosphorylation by immunoblot in SK-MEL-28 cells", "assay_type": "cell-based", "procedure": "as §1, §2"}, "[9]": {"biological_target": "T16, BRAF-p61^V600E (SK-MEL-239 C4 cells) (Homo sapiens, UniProt P15056, DEL169-380/V600E)", "T16 construct": "endogenous in cells; host or cells: SK-MEL-239 C4; HCC-364 vr1", "T16 sequence (P15056 with tags, fused parts or gaps DEL169-380/V600E)": "as the sequence (P15056 with tags, fused parts or gaps DEL169-380/V600E) above", "T16 sequence (P40337 whole entry, stated change not applied, further chain)": "as the sequence (P40337 whole entry, stated change not applied) above", "T16 sequence (Q15370 whole entry partner)": "as the sequence (Q15370 whole entry partner) above", "T16 sequence (Q15369 whole entry partner)": "as the sequence (Q15369 whole entry partner) above", "test": "BRAF degradation by immunoblot in SK-MEL-239 C4 cells", "assay_type": "cell-based", "details": "p61 dimer", "procedure": "as §1, §2"}, "[10]": {"biological_target": "T17, BRAF-p61^V600E (SK-MEL-239 C4 cells) (Homo sapiens, UniProt P15056+P40337, DEL169-380/V600E)", "T17 construct": "endogenous in cells; host or cells: SK-MEL-239 C4; HCC-364 vr1", "T17 sequence (P15056 with tags, fused parts or gaps DEL169-380/V600E)": "as the sequence (P15056 with tags, fused parts or gaps DEL169-380/V600E) above", "T17 sequence (P40337 whole entry, stated change not applied)": "as the sequence (P40337 whole entry, stated change not applied) above", "T17 sequence (Q15370 whole entry partner)": "as the sequence (Q15370 whole entry partner) above", "T17 sequence (Q15369 whole entry partner)": "as the sequence (Q15369 whole entry partner) above", "test": "BRAF degradation by immunoblot in SK-MEL-239 C4 cells", "assay_type": "cell-based", "details": "p61 dimer", "procedure": "as §1, §2"}, "p-ERK (CAL-12-T cells)": {"test_system": "p-ERK (CAL-12-T cells)", "test": "p-ERK inhibition by immunoblot in CAL-12-T cells", "assay_type": "cell-based", "procedure": "as §1, §2"}, "[11]": {"details": "1 μM cobimetinib pre-treatment 1 hour, then 1 μM SJF-0628"}}, "note": "“Also recorded” adds a separate entry of the source."}
{"smiles": "CCCS(=O)(=O)Nc1ccc(F)c(C(=O)c2c[nH]c3ncc(-c4ccc(N5CCN(CC(=O)NC(C(=O)N6CC(O)CC6C(=O)NCc6ccc(-c7scnc7C)cc6)C(C)(C)C)CC5)cc4)cc23)c1F", "note": "(stereo not shown) [SJF-0628]", "values": [{"measurement": "BRAF^WT degradation", "setting": "BRAF^WT (OVCAR-8 cells)", "result": "minor BRAF^WT degradation"}, {"measurement": "time at which complete degradation of BRAF^WT observed", "setting": "[1]; [11]", "result": 12, "unit": "h"}, {"measurement": "time to PROTAC-induced degradation of BRAF^WT", "setting": "[1]; [11]", "result": "≤ 4", "unit": "h"}, {"measurement": "degradation of BRAF^WT", "setting": "[1]; PROTAC concentrations greater than 1 µM", "result": "~ 50%"}, {"measurement": "SJF-0628-dependent BRAF^WT degradation", "setting": "[1]; lapatinib 2-hour pre-treatment", "result": 10, "unit": "%"}, {"measurement": "SJF-0628-dependent BRAF^WT degradation", "setting": "[1]; without lapatinib pre-treatment", "result": 48, "unit": "%"}, {"measurement": "EC50", "setting": "[2]", "result": "45 ± 1.11", "unit": "nM"}, {"measurement": "DC50", "setting": "[3]", "result": 147, "unit": "nM"}, {"measurement": "Dmax", "setting": "[3]; HCC364", "result": "> 90", "unit": "%"}, {"measurement": "IC50", "setting": "BRAF (G464V)", "result": 9.18, "unit": "nM"}, {"measurement": "IC50", "setting": "BRAF (L597V)", "result": 16, "unit": "nM"}, {"measurement": "IC50", "setting": "CRAF", "result": 37.6, "unit": "nM"}, {"measurement": "IC50", "setting": "BRAF (V600D)", "result": 2.68, "unit": "nM"}, {"measurement": "IC50", "setting": "BRAF (V600K)", "result": 0.49, "unit": "nM"}, {"measurement": "IC50", "setting": "BRAF (G469A)", "result": 0.98, "unit": "nM"}, {"measurement": "IC50", "setting": "BRAF (BRAF^WT)", "result": 5.8, "unit": "nM"}, {"measurement": "IC50", "setting": "BRAF (V600A)", "result": 1.06, "unit": "nM"}, {"measurement": "IC50", "setting": "BRAF (K601E)", "result": 7.84, "unit": "nM"}, {"measurement": "IC50", "setting": "ARAF", "result": 0.27, "unit": "nM"}, {"measurement": "time for which BRAF^V600E degradation and p-ERK inhibition was sustained", "setting": "[4]; 100 nM", "result": "up to 72 h"}, {"measurement": "recovery of BRAF levels and MAPK phosphorylation after wash-out", "setting": "[4]; 100 nM 24 h treatment, wash-out, 24 h after", "result": 30, "unit": "%"}, {"measurement": "time to near complete / maximal BRAF^V600E degradation", "setting": "[4]; 100 nM time course", "result": "≤ 4", "unit": "h"}, {"measurement": "DC50", "setting": "[4]; 20-24 h treatment, read-out: DC50 (half-maximal degradation)", "result": 6.8, "unit": "nM"}, {"measurement": "Dmax", "setting": "[4]; 20-24 h treatment, read-out: DMAX (percent of maximal degradation)", "result": "> 95", "unit": "%"}, {"measurement": "DC50", "setting": "[5]", "result": 23, "unit": "nM"}, {"measurement": "Dmax", "setting": "[5]", "result": "> 90", "unit": "%"}, {"measurement": "inhibition of cell growth / effect on cell viability", "setting": "[6]", "result": "minimal inhibition of cell growth; also recorded: minimal effect on cell viability"}, {"measurement": "BRAF^WT degradation", "setting": "[7]; MRTX849 pre-treatment 2 h", "result": 20, "unit": "%"}, {"measurement": "BRAF^WT degradation", "setting": "[7]; PROTAC alone", "result": 50, "unit": "%"}, {"measurement": "concentration giving maximal inhibition of MEK and ERK phosphorylation / maximal suppression of p-ERK", "setting": "[8]", "result": 10, "unit": "nM"}, {"measurement": "increase in potency of the PROTAC over epimer SJF-0661 (p-ERK suppression)", "setting": "[8]", "result": 10, "unit": "fold"}, {"measurement": "DC50", "setting": "[9]", "result": 72, "unit": "nM"}, {"measurement": "Dmax", "setting": "[10]", "result": "> 80", "unit": "%"}, {"measurement": "inhibition of p-ERK", "setting": "p-ERK (CAL-12-T cells)", "result": "> 70", "unit": "%"}]}
